Source: PubChem BioAssay (NCI)
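All cell lines were grown in 96-well plates and treated with compound for 48 hours. At the GI50, growth is halved. TGI: total growth inhibition.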

How the values were obtained:
Assay in all cases: inhibition of tumour cell growth, NCI panel, 48 h
A549 NSCLC = test system: A549 NSCLC
HCT-116 colon = test system: HCT-116 colon
HL-60(TB) leukemia = test system: HL-60(TB) leukemia
HOP-62 NSCLC = test system: HOP-62 NSCLC
RXF 393 renal = test system: RXF 393 renal
SK-MEL-5 melanoma = test system: SK-MEL-5 melanoma
SNB-75 CNS = test system: SNB-75 CNS
SR leukemia = test system: SR leukemia
U251 CNS = test system: U251 CNS
NCI/ADR-RES ovarian = test system: NCI/ADR-RES ovarian

Cc1ccc(NC(=O)/C(=N/NC(=O)CC#N)C2C(=O)N(c3ccccc3)N=C2N)cc1C (stereo unspecified)
TGI (A549 NSCLC): > 100 µM
TGI (HCT-116 colon): > 100 µM
TGI (HL-60(TB) leukemia): > 100 µM
TGI (HOP-62 NSCLC): > 100 µM
TGI (RXF 393 renal): > 100 µM
TGI (SK-MEL-5 melanoma): > 100 µM
TGI (SNB-75 CNS): > 100 µM
TGI (SR leukemia): > 100 µM
TGI (U251 CNS): > 100 µM

O=C1CC(c2ccccc2)NCN1 (stereo unspecified)
TGI (A549 NSCLC): > 100 µM
TGI (HCT-116 colon): > 100 µM
TGI (HL-60(TB) leukemia): > 100 µM
TGI (HOP-62 NSCLC): > 100 µM
TGI (RXF 393 renal): > 100 µM
TGI (SK-MEL-5 melanoma): > 100 µM
TGI (SNB-75 CNS): > 100 µM
TGI (SR leukemia): > 100 µM
TGI (U251 CNS): > 100 µM

N#C/C(=C\c1ccc(Br)cc1)n1nnc2cc(F)c(F)cc21
GI50 (A549 NSCLC): 2.14 µM
TGI (A549 NSCLC): 5.62 µM
GI50 (HCT-116 colon): 1.56 µM
TGI (HCT-116 colon): 3.44 µM
GI50 (HL-60(TB) leukemia): 2.07 µM
TGI (HL-60(TB) leukemia): 4.96 µM
GI50 (HOP-62 NSCLC): 1.93 µM
TGI (HOP-62 NSCLC): 4.27 µM
GI50 (NCI/ADR-RES ovarian): 2.3 µM
TGI (NCI/ADR-RES ovarian): > 100 µM
GI50 (RXF 393 renal): 1.37 µM
TGI (RXF 393 renal): 2.77 µM
GI50 (SK-MEL-5 melanoma): 1.76 µM
TGI (SK-MEL-5 melanoma): 3.17 µM
GI50 (U251 CNS): 1.6 µM
TGI (U251 CNS): 3.06 µM

Cc1ccc(-c2nc3nc(-c4ccc(Cl)cc4)nc(N4CCCNCC4)c3o2)cc1
GI50 (A549 NSCLC): 1.91 µM
TGI (A549 NSCLC): 3.83 µM
GI50 (HCT-116 colon): 1.53 µM
TGI (HCT-116 colon): 2.94 µM
GI50 (HL-60(TB) leukemia): 1.4 µM
TGI (HL-60(TB) leukemia): 3.25 µM
GI50 (HOP-62 NSCLC): 1.76 µM
TGI (HOP-62 NSCLC): 3.64 µM
GI50 (NCI/ADR-RES ovarian): 2.02 µM
TGI (NCI/ADR-RES ovarian): 3.95 µM
GI50 (RXF 393 renal): 1.58 µM
TGI (RXF 393 renal): 3.03 µM
GI50 (SK-MEL-5 melanoma): 1.82 µM
TGI (SK-MEL-5 melanoma): 3.33 µM
GI50 (SNB-75 CNS): 1.2 µM
TGI (SNB-75 CNS): 2.47 µM
GI50 (U251 CNS): 1.85 µM
TGI (U251 CNS): 3.55 µM

CCOC(=O)c1ccc(C(O)CC(=O)OC(C)(C)C)[nH]1 (stereo unspecified)
GI50 (A549 NSCLC): 32.1 µM
TGI (A549 NSCLC): > 100 µM
GI50 (HCT-116 colon): 23.2 µM
TGI (HCT-116 colon): 68.4 µM
GI50 (HOP-62 NSCLC): 45.1 µM
TGI (HOP-62 NSCLC): > 100 µM
GI50 (NCI/ADR-RES ovarian): 41 µM
TGI (NCI/ADR-RES ovarian): > 100 µM
GI50 (SK-MEL-5 melanoma): 27.3 µM
TGI (SK-MEL-5 melanoma): 89 µM
GI50 (SNB-75 CNS): 37.2 µM
TGI (SNB-75 CNS): > 100 µM
GI50 (SR leukemia): 22.4 µM
TGI (SR leukemia): > 100 µM
GI50 (U251 CNS): 39.5 µM
TGI (U251 CNS): > 100 µM

N#CC(c1ccc(Cl)cc1)c1cccc(Cl)n1 (stereo unspecified)
TGI (A549 NSCLC): > 100 µM
TGI (HL-60(TB) leukemia): > 100 µM
TGI (HOP-62 NSCLC): > 100 µM
TGI (SNB-75 CNS): 84.3 µM
TGI (SR leukemia): > 100 µM
TGI (U251 CNS): > 100 µM

COc1ccc2c(c1)/C(=C/c1c(-c3ccc(C)cc3)nc3sc(C)cn13)C(=O)N2
GI50 (A549 NSCLC): 12.5 µM
TGI (A549 NSCLC): > 100 µM
GI50 (HCT-116 colon): 4.71 µM
TGI (HCT-116 colon): 18.7 µM
GI50 (HL-60(TB) leukemia): 4.85 µM
TGI (HL-60(TB) leukemia): 30.8 µM
GI50 (HOP-62 NSCLC): 19.7 µM
TGI (HOP-62 NSCLC): > 100 µM
GI50 (SK-MEL-5 melanoma): 11.9 µM
TGI (SK-MEL-5 melanoma): 30.5 µM
GI50 (SNB-75 CNS): 11.8 µM
TGI (SNB-75 CNS): > 100 µM
GI50 (SR leukemia): 1.59 µM
TGI (SR leukemia): 28.7 µM

COc1ccc2c(c1)C(=O)c1c-2c(N2CCN(C(=O)CN(C)C)CC2)nc2ccccc12
GI50 (A549 NSCLC): 13.8 µM
TGI (A549 NSCLC): 37 µM
GI50 (HCT-116 colon): 11.6 µM
TGI (HCT-116 colon): 26.3 µM
GI50 (HL-60(TB) leukemia): 20 µM
TGI (HL-60(TB) leukemia): 52.4 µM
GI50 (HOP-62 NSCLC): 13.6 µM
TGI (HOP-62 NSCLC): 29.2 µM
GI50 (NCI/ADR-RES ovarian): 19.7 µM
TGI (NCI/ADR-RES ovarian): 57.1 µM
GI50 (SK-MEL-5 melanoma): 18.2 µM
TGI (SK-MEL-5 melanoma): 34.6 µM
GI50 (SNB-75 CNS): 11.8 µM
TGI (SNB-75 CNS): 27.7 µM
GI50 (U251 CNS): 14.9 µM
TGI (U251 CNS): 30.6 µM

COc1cc(C(=O)O)ccc1NC(=O)[C@@H]1N[C@@H](CC(C)(C)C)[C@](C#N)(c2ccc(Cl)cc2F)[C@H]1c1cccc(Cl)c1F
GI50 (A549 NSCLC): 0.138 µM
TGI (A549 NSCLC): 8.21 µM
GI50 (HL-60(TB) leukemia): 2.28 µM
TGI (HL-60(TB) leukemia): 6.71 µM
GI50 (HOP-62 NSCLC): 6.04 µM
TGI (HOP-62 NSCLC): 17.4 µM
GI50 (NCI/ADR-RES ovarian): 6.83 µM
TGI (NCI/ADR-RES ovarian): 25.2 µM
GI50 (RXF 393 renal): 3.55 µM
TGI (RXF 393 renal): 10.3 µM
GI50 (SNB-75 CNS): 3.35 µM
TGI (SNB-75 CNS): 20.9 µM
GI50 (U251 CNS): 3.16 µM
TGI (U251 CNS): 11 µM

O[C@H]1[C@H]2[C@H](O)CCCN2C[C@H]1O
TGI (A549 NSCLC): > 100 µM
TGI (HCT-116 colon): > 100 µM
TGI (HL-60(TB) leukemia): > 100 µM
TGI (HOP-62 NSCLC): > 100 µM
TGI (RXF 393 renal): > 100 µM
TGI (SK-MEL-5 melanoma): > 100 µM
TGI (SNB-75 CNS): > 100 µM
TGI (U251 CNS): > 100 µM

O=C1OC2(c3ccccc31)c1cc(I)c(O)c(I)c1Oc1c2cc(I)c(O)c1I
TGI (A549 NSCLC): > 100 µM
TGI (HCT-116 colon): > 100 µM
TGI (HOP-62 NSCLC): > 100 µM
TGI (NCI/ADR-RES ovarian): > 100 µM
TGI (RXF 393 renal): > 100 µM
TGI (SK-MEL-5 melanoma): > 100 µM
TGI (SNB-75 CNS): > 100 µM
TGI (SR leukemia): > 100 µM
TGI (U251 CNS): > 100 µM

NC1=NN(c2ccccc2)C(=O)C1C(=O)C(=O)Nc1cccc(C(F)(F)F)c1 (stereo unspecified)
TGI (A549 NSCLC): > 100 µM
TGI (HCT-116 colon): > 100 µM
TGI (HL-60(TB) leukemia): > 100 µM
TGI (HOP-62 NSCLC): > 100 µM
TGI (SK-MEL-5 melanoma): > 100 µM
TGI (U251 CNS): > 100 µM

C=C1C(=O)O[C@H]2[C@H]1CC/C(Cn1cc(Cn3ccc4cc(Cl)ccc43)nn1)=C\CC[C@@]1(C)O[C@@H]21
GI50 (A549 NSCLC): 10.2 µM
TGI (A549 NSCLC): 24.8 µM
GI50 (HCT-116 colon): 1.5 µM
TGI (HCT-116 colon): 3.12 µM
GI50 (HOP-62 NSCLC): 4.9 µM
TGI (HOP-62 NSCLC): 20.1 µM
GI50 (NCI/ADR-RES ovarian): 2.54 µM
TGI (NCI/ADR-RES ovarian): 9.09 µM
GI50 (RXF 393 renal): 1.17 µM
TGI (RXF 393 renal): 2.46 µM
GI50 (SK-MEL-5 melanoma): 1.73 µM
TGI (SK-MEL-5 melanoma): 3.32 µM
GI50 (SNB-75 CNS): 1.27 µM
TGI (SNB-75 CNS): 4.52 µM
GI50 (SR leukemia): 0.279 µM
TGI (SR leukemia): 1.25 µM
GI50 (U251 CNS): 1.69 µM
TGI (U251 CNS): 3.35 µM

C/C(=N\[N+](C)(C)C)C(c1ccccc1)C1(c2ccccc2)C(c2ccccc2)=C1c1ccccc1 (stereo unspecified)
TGI (A549 NSCLC): > 100 µM
TGI (HCT-116 colon): > 100 µM
TGI (HL-60(TB) leukemia): > 100 µM
TGI (HOP-62 NSCLC): > 100 µM
TGI (RXF 393 renal): 73 µM
TGI (SK-MEL-5 melanoma): > 100 µM
TGI (U251 CNS): > 100 µM

CC(=O)Oc1cc2c(=O)oc3c(OC(C)=O)c(OC(C)=O)c(OC(C)=O)c4c(=O)oc(c1OC(C)=O)c2c34
TGI (A549 NSCLC): > 100 µM
TGI (HCT-116 colon): 52.6 µM
TGI (HL-60(TB) leukemia): > 100 µM
TGI (HOP-62 NSCLC): > 100 µM
TGI (RXF 393 renal): 32 µM
TGI (SK-MEL-5 melanoma): > 100 µM
TGI (SNB-75 CNS): > 100 µM
TGI (SR leukemia): > 100 µM
TGI (U251 CNS): > 100 µM

Fc1ccc(Nc2ccc3cc(OCCCN4CCOCC4)ccc3n2)cc1F
GI50 (A549 NSCLC): 5.36 µM
TGI (A549 NSCLC): > 100 µM
GI50 (HCT-116 colon): 4.5 µM
TGI (HCT-116 colon): > 100 µM
GI50 (HOP-62 NSCLC): 4.54 µM
TGI (HOP-62 NSCLC): 45.9 µM
GI50 (NCI/ADR-RES ovarian): 4.45 µM
TGI (NCI/ADR-RES ovarian): > 100 µM
GI50 (RXF 393 renal): 2.45 µM
TGI (RXF 393 renal): 7.32 µM
GI50 (SK-MEL-5 melanoma): 1.75 µM
TGI (SK-MEL-5 melanoma): 3.49 µM
GI50 (SNB-75 CNS): 2.44 µM
TGI (SNB-75 CNS): 17.7 µM
GI50 (SR leukemia): 2.03 µM
TGI (SR leukemia): 32.8 µM
GI50 (U251 CNS): 2.92 µM
TGI (U251 CNS): 7.79 µM

O=C(/C=C/C12c3ccccc3C(c3ccccc31)C1C(=O)NC(=O)C12)c1ccco1 (stereo unspecified)
GI50 (A549 NSCLC): 3.25 µM
TGI (A549 NSCLC): 10.1 µM
GI50 (HCT-116 colon): 1.69 µM
TGI (HCT-116 colon): 3.74 µM
GI50 (HL-60(TB) leukemia): 1.58 µM
TGI (HL-60(TB) leukemia): 4.89 µM
GI50 (HOP-62 NSCLC): 2.7 µM
TGI (HOP-62 NSCLC): 6.99 µM
GI50 (NCI/ADR-RES ovarian): 2.38 µM
TGI (NCI/ADR-RES ovarian): 6.42 µM
GI50 (RXF 393 renal): 1.79 µM
TGI (RXF 393 renal): 3.48 µM
GI50 (SK-MEL-5 melanoma): 1.77 µM
TGI (SK-MEL-5 melanoma): 3.28 µM
GI50 (SNB-75 CNS): 3.44 µM
TGI (SNB-75 CNS): 12.2 µM
GI50 (U251 CNS): 2.01 µM
TGI (U251 CNS): 4.36 µM
